Experiment: Solubility of M4N in formulations containing modified celluloses (visual inspection); for Dissolution After Rotation: key: N represents 'No'; Y represents 'Yes.'
Format: physicochemical
Description: A 10 mL solution of 50% HP-β-CD (w/v) and 0.5% hydroxypropyl methylcellulose (“HPMC”) (w/v) for use as a solubilizing agent and/or excipient was made as follows: 5.9 mL of water suitable for injection into animals (“WFI”) were placed in a glass beaker containing a stir bar. The beaker was placed on a magnetic plate, and the stir bar was set to stir at medium speed. Five grams of HP-β-CD were added slowly to the stirring WFI, using a spatula to direct the HP-β-CD to the center of the beaker. The HP-β-CD solution was stirred for about 24 hr or until the HP-β-CD was dissolved completely upon visual inspection. The resulting solution measured about 9.4 mL. About 0.6 mL of WFI was added to this resulting solution to reach 10 mL, to produce a solution of 50% HP-β-CD (w/v). Fifty milligrams of HPMC were added to the 50% HP-β-CD solution and stirred for about 1 hr or until the HPMC was dissolved upon visual inspection. The final solution was stirred for about 1 hr and was then stored at room temperature, protected from light. This method of making modified cyclodextrins with modified celluloses may be scaled up or down to obtain the desired volume or concentration of HP-β-CD/HPMC solution. Other modified cyclodextrin/modified cellulose solutions may be similarly made, for example, by substituting HP-β-CD with other modified cyclodextrins, or HPMC with other modified celluloses, in the process described above.
A 10 mL solution of M4N at a concentration of about 10 mg/mL in 50% HP-β-CD/0.5% HPMC was made as follows. About 10 mL of the 50% HP-β-CD/0.5% HPMC solution were added to a glass beaker containing a stir bar. The beaker was placed on a magnetic plate and the stir bar was set to stir at medium speed. About 100 mg of M4N were slowly added to the 50% HP-β-CD/0.5% HPMC in the center of the beaker with the aid of a spatula. The M4N/50% HP-β-CD/0.5% HPMC mixture was stirred for 24 hr or until all M4N was uniformly suspended without any clumps being present. The M4N/50% HP-β-CD/0.5% HPMC mixture was heated at about 90° C. for about 30 min. (or longer if a larger volume of solution was desired, for example, 1 hr at 90° C. for 500 mL of the M4N/50% HP-β-CD/0.5% HPMC mixture), or longer as needed to ensure complete dissolution of M4N. […] The final M4N/50% HP-β-CD/0.5% HPMC solution was stored at room temperature and was kept protected from light.
A 10 mL solution of 5% ethylcellulose (“EC”) in ethanol (w/v) for use as a solubilizing agent and/or excipient was made as follows: 10 mL of 100% ethyl alcohol (“EtOH”) were placed in a glass beaker containing a stir bar, covered by a round Teflon® cover. The beaker was placed on a magnetic plate, and the stir bar was set to stir at medium speed. Five hundred (500) milligrams of EC was added slowly to the stirring ethanol, using a spatula to direct the EC to the center of the beaker so as to prevent EC powder from sticking to the beaker wall. The EC solution was stirred for about 2 hr or until the EC was dissolved completely upon visual inspection. The final solution was stored at room temperature, and was protected from light.
A 10 mL solution of M4N at a concentration of about 20 mg/mL in 5% EC (w/v) (the “EC formulation”) was made as follows. About 10 mL of 5% EC formulation, made as described above, were added to a glass beaker containing a stir bar. The beaker was placed on a magnetic plate and the stir bar was set to stir at medium speed, and covered with a round Teflon® cover. About 200 mg of M4N were slowly added to the 5% EC formulation in the center of the beaker with the aid of a spatula to prevent M4N from sticking to the beaker wall. The M4N/EC mixture was stirred for 2 hr or until all M4N had dissolved or was uniformly suspended without any clumps being present. The M4N/EC mixture was heated at about 60° C. for about 30 min. […]

[1] = 50% HP-β-CD, 0.5% HPMC, M4N 1 mg/mL
[2] = 50% HP-β-CD, 0.5% HPMC, M4N 10 mg/mL
[3] = EC 5% (w/v) in EtOH, M4N 1 mg/mL
[4] = EC 5% (w/v) in EtOH, M4N 10 mg/mL
[5] = EC 5% (w/v) in EtOH, M4N 20 mg/mL

COc1ccc(C[C@@H](C)[C@@H](C)Cc2ccc(OC)c(OC)c2)cc1OC [Formulation M4N, meso-1,4-bis(3,4-dimethoxyphenyl)-2,3-dimethylbutane]
Dissolution After Rotation (2.3% HPMC, M4N 1 mg/mL): N | Dissolution After Heating (2.3% HPMC, M4N 1 mg/mL, 90° C.): N at 90 °C | Dissolution After Rotation (2.3% HPMC, M4N 10 mg/mL): N | Dissolution After Heating (2.3% HPMC, M4N 10 mg/mL, 90° C.): N at 90 °C | Dissolution After Rotation (2.3% HPMC, M4N 50 mg/mL): N | Dissolution After Heating (2.3% HPMC, M4N 50 mg/mL, 90° C.): N at 90 °C | Dissolution After Rotation (2.3% HPMC, M4N 100 mg/mL): N | Dissolution After Heating (2.3% HPMC, M4N 100 mg/mL, 90° C.): N at 90 °C | Dissolution After Rotation [1]: N | Stability Time at Room Temperature [1]: >7 days | Dissolution After Heating (50% HP-β-CD, 0.5% HPMC, M4N 1 mg/mL, 90° C.): Y at 90 °C | Dissolution After Rotation [2]: N | Stability Time at Room Temperature [2]: >7 days | Dissolution After Heating (50% HP-β-CD, 0.5% HPMC, M4N 10 mg/mL, 90° C.): Y at 90 °C | Dissolution After Rotation (50% HP-β-CD, 0.5% HPMC, M4N 50 mg/mL): N | Dissolution After Heating (50% HP-β-CD, 0.5% HPMC, M4N 50 mg/mL, 90° C.): N at 90 °C | Dissolution After Rotation (CMC (High Viscosity) 1% (w/v), M4N 1 mg/mL): N | Dissolution After Heating (CMC (High Viscosity) 1% (w/v), M4N 1 mg/mL, 90° C.): N at 90 °C | Dissolution After Rotation (CMC (High Viscosity) 1% (w/v), M4N 10 mg/mL): N | Dissolution After Heating (CMC (High Viscosity) 1% (w/v), M4N 10 mg/mL, 90° C.): N at 90 °C | Dissolution After Rotation (CMC (Low Viscosity) 4%, M4N 1 mg/mL): N | Dissolution After Heating (CMC (Low Viscosity) 4%, M4N 1 mg/mL, 90° C.): N at 90 °C | Dissolution After Rotation (CMC (Low Viscosity) 4%, M4N 10 mg/mL): N | Dissolution After Heating (CMC (Low Viscosity) 4%, M4N 10 mg/mL, 90° C.): N at 90 °C | Dissolution After Rotation [3]: Y | Stability Time at Room Temperature [3]: >3 days | Dissolution After Rotation [4]: N | Stability Time at Room Temperature [4]: >3 days | Dissolution After Heating (EC 5% (w/v) in EtOH, M4N 10 mg/mL, 40° C.): Y at 40 °C | Dissolution After Rotation [5]: N | Stability Time at Room Temperature [5]: >3 days | Dissolution After Heating (EC 5% (w/v) in EtOH, M4N 20 mg/mL, 60° C.): Y at 60 °C | Dissolution After Rotation (EC 5% (w/v) in EtOH, M4N 30 mg/mL): N | Dissolution After Heating (EC 5% (w/v) in EtOH, M4N 30 mg/mL, 60° C.): Y at 60 °C | Dissolution After Rotation (EC 5% (w/v) in EtOH, M4N 50 mg/mL): N | Dissolution After Heating (EC 5% (w/v) in EtOH, M4N 50 mg/mL, 90° C.): Y at 90 °C | Dissolution After Rotation (EC 5% (w/v) in EtOH, M4N 100 mg/mL): N | Dissolution After Heating (EC 5% (w/v) in EtOH, M4N 100 mg/mL, 90° C.): Y at 90 °C | Stability at Room Temperature (M4N 1 mg/mL and 10 mg/mL in 50% HP-β-CD/0.5% HPMC, heated at 90° C., after cool down): greater than 7 days | stable at room temperature (M4N 1 mg/mL in EC formulation (5% EC in EtOH), without heat): greater than 3 days | stable at room temperature (M4N 10 mg/mL in EC formulation, dissolved at 40° C.): greater than 3 days | stable at room temperature (M4N 20 mg/mL in EC formulation, dissolved at 60° C.): greater than 3 days | solution upon cooling (M4N 30 mg/mL in EC formulation, soluble at 60° C.): did not remain in solution upon cooling | dissolution (M4N 50 mg/mL in 50% HP-β-CD/0.5% HPMC at 90° C.): did not dissolve | solution upon cooling (M4N 50 mg/mL or 100 mg/mL in EC formulation, soluble at 90° C.): did not remain in solution upon cooling | Dissolution After Rotation (MC (Low viscosity) 2% (w/v), M4N 1 mg/mL): N | Dissolution After Heating (MC (Low viscosity) 2% (w/v), M4N 1 mg/mL, 90° C.): N at 90 °C | Dissolution After Rotation (MC (Low viscosity) 2% (w/v), M4N 10 mg/mL): N | Dissolution After Heating (MC (Low viscosity) 2% (w/v), M4N 10 mg/mL, 90° C.): N at 90 °C
